Results: patent US20240197674A1, “NOVEL USE OF 3-(4-(BENZYLOXY)PHENYL)HEX-4-INOIC ACID DERIVATIVE” (Hyundai Pharm Co., Ltd., priority 2021, published 2024)
“Also recorded” adds a separate entry of the source.

Experiments:
Type in all cases: cell-based
C2C12 cells [1] = test: Expression of myogenic factors MyoG and MyHC by western blotting in C2C12 myoblasts; conditions: differentiation medium (2% horse serum DMEM), 3 days
Method: (§1) C2C12 cells, which are myoblasts, were cultured and treated with a mixture of Compound A in a differentiation medium [2% horse serum (Cat No. 16050, Invitrogen, USA)-containing DMEM (Cat No. 11965, Invitrogen)] for 3 days. Afterward, the change in expression of myogenin (myogenic factor 4, MyoG) and a myosin heavy chain (MyHC), which are known as myogenic factors, was confirmed by western blotting. As primary antibodies, a MyoG antibody (Santa Cruz, sc-12732), a MyHC antibody (Santa Cruz, sc-32732), and a beta-actin antibody (Santa Cruz, sc-47778) were used. As a result, it can be confirmed that the higher the treatment concentration of Compound A, the higher the expression of MyoG and MyHC (FIG. 1).
(§2) Since Compound A is known as a G-protein-coupled receptor40 agonist (GPR40 agonist), it was confirmed whether the myogenesis promoting effect (Experimental Example 1) of Compound A is a general effect of GPR40 agonists. Specifically, experiments were conducted in the same manner as in Experimental Examples 1 and 2, except that C2C12 cells were treated with LY2922470 instead of Compound A. As a result of the experiments, it can be seen that, when the C2C12 cells were treated with LY2922470, the expression of myogenic factors MyoG and MyHC was inhibited (FIG. 7), the MyHC positive area decreased, and myotube formation was inhibited (FIG. 8).

C2C12 cells [2] = test: MyHC immunohistochemistry: MyHC positive area, myotube thickness and myotube formation; conditions: C2C12 myoblasts, differentiation medium, 3 days
Method: as §1
In addition, C2C12 cells were treated with Compound A in the same manner as above, and then immunohistochemistry was performed with a MyHC antibody. As a result, it was confirmed that, as the treatment concentration of Compound A increases, the MyHC positive area and myotube thickness increase (FIG. 2).
as §2

C2C12 cells [3] = test: Bax/Bcl2 ratio by western blotting after palmitate treatment; conditions: with palmitate in growth medium, 24 hours, versus palmitate only
Method: (§3) Sarcopenia is known to be accelerated by diabetes, obesity, or inflammatory responses. Accordingly, it was confirmed whether Compound A can inhibit muscle loss even under the above conditions as follows. Palmitate (PA; P9767, Sigma-Aldrich, USA) was dissolved in ethanol and then mixed with bovine serum albumin (BSA; A7888, Sigma-Aldrich) dissolved in DMEM at a molar ratio of 6:1, followed by conjugation at 60° C. for 1 hour. Cells were treated with the resulting conjugate.
(§4) After mixing Compound A and the palmitate in a growth medium (10% FBS (Cat No. 16000, Invitrogen)-containing DMEM), C2C12 cells were treated with the resulting mixture for 24 hours, and then a Bax/Bcl2 ratio was confirmed by western blotting and cell viability was assessed using a cell viability assay kit (Dozen, EZ-3000). Primary antibodies used herein were the Bax antibody (Santa Cruz, sc-7480) and Bcl2 antibody (Santa Cruz, sc-7382). Bax is a protein inducing apoptosis, and Bcl2 is a protein inhibiting apoptosis by hindering the migration of Bax to mitochondria.

C2C12 cells [4] = test: Cell viability assay kit after palmitate treatment; conditions: with palmitate in growth medium, 24 hours, versus palmitate only
Method: as §3, §4, §2

C2C12 cells [5] = test: MyoG and MyHC expression after palmitate treatment and 3 days of differentiation; conditions: with palmitate 24 hours, then 3 days differentiation, versus decrease by palmitate only
Method: as §3
(§5) Compound A and the palmitate were mixed in a growth medium (10% FBS-containing DMEM), and C2C12 cells were treated with the resulting mixture. After 24 hours, the medium was exchanged with a fresh […] to induce differentiation for 3 days, and after 3 days, the cells were collected to confirm the expression of MyoG and MyHC, and the changes in MyHC positive area and myotube thickness.

C2C12 cells [6] = test: MyHC positive area and myotube thickness after palmitate treatment and 3 days of differentiation; conditions: with palmitate 24 hours, then 3 days differentiation, versus decrease by palmitate only
Method: as §3, §5

C2C12 cells [7] = test: Atrogin-1 expression in differentiated C2C12 myotubes treated with palmitate; conditions: C2C12 differentiated 6 days into myotubes, with palmitate in differentiation medium, versus palmitate only
Method: as §3
(§6) Atrogin-1 is a type of E3 ubiquitin ligase and a marker associated with muscular atrophy, and it is known that, as its gene expression increases, muscle is broken down. To confirm the change in atrogin-1 expression by Compound A, C2C12 cells were cultured in a differentiation medium for 6 days to induce differentiation into myotubes, and the differentiated cells were treated with a mixture of Compound A and palmitate in a differentiation medium. Afterward, an expression level was confirmed using an atrogin-1 antibody (Abnova, PAB15627), and cell viability was measured.

C2C12 cells [8] = test: Cell viability of differentiated C2C12 myotubes treated with palmitate; conditions: C2C12 differentiated 6 days into myotubes, with palmitate in differentiation medium, versus palmitate only
Method: as §3, §6

[9] = immunohistochemistry with MyHC antibody

Q: For `CC#C[C@@H](CC(=O)O)c1ccc(OCc2cccc(C3=CCC4(CC3)OCCO4)c2)cc1` [Compound A, (3S)-3-(4-(3-(1,4-dioxaspiro[4,5]des-7-en-8-yl)benzyloxy)phenyl)hex-4-inoic acid], which “expression of MyHC” value (C2C12 cells [1]) is on record?
A: Its value is “higher”.

Q: What about the “expression of MyoG” value (C2C12 cells [1]) of the same molecule?
A: Its value is “higher”.

Q: And the MyHC positive area (C2C12 cells [2]; [9])?
A: Its MyHC positive area is “increase”.

Q: And the myotube thickness (C2C12 cells [2]; [9])?
A: The myotube thickness was “increase”.

Q: And the Bax/Bcl2 ratio (C2C12 cells [3])?
A: Its Bax/Bcl2 ratio is “decreased”.

Q: And the “cell viability (apoptosis caused by palmitate)” value (C2C12 cells [4])?
A: The value was “increased; also recorded: inhibited apoptosis”.

Q: What about the “expression of MyHC” value (C2C12 cells [5]) of the same molecule?
A: Its value is “reversed”.

Q: And the “expression of MyoG” value (C2C12 cells [5])?
A: Its value is “reversed”.

Q: What about the MyHC positive area (C2C12 cells [6]) of the same molecule?
A: The MyHC positive area was “reversed”.

Q: What about the myotube thickness (C2C12 cells [6]) of the same molecule?
A: The myotube thickness was “reversed”.

Q: And the atrogin-1 expression (C2C12 cells [7])?
A: The atrogin-1 expression was “decreased”.

Q: And the cell viability (C2C12 cells [8])?
A: The cell viability was “recovered”.

Q: For `CC#C[C@@H](CC(=O)O)c1ccc(OCc2ccc(CN3CCCc4cccc(OC)c43)s2)cc1` [LY2922470, reference compound], which “expression of MyHC” value (C2C12 cells [1]) is on record?
A: Its value is “inhibited”.

Q: What about the “expression of MyoG” value (C2C12 cells [1]) of the same molecule?
A: The value was “inhibited”.

Q: What about the myotube formation (C2C12 cells [2]) of the same molecule?
A: Its myotube formation is “inhibited”.

Q: What about the MyHC positive area (C2C12 cells [2]; [9]) of the same molecule?
A: Its MyHC positive area is “decreased”.

Q: What about the “cell viability (apoptosis caused by palmitate)” value (C2C12 cells [4]) of the same molecule?
A: Its value is “did not inhibit apoptosis”.

Q: Which results are given for `CC#C[C@@H](CC(=O)O)c1ccc(OCc2cccc(C3=CCC4(CC3)OCCO4)c2)cc1` [compound of Formula 1, (3S)-3-(4-(3-(1,4-dioxaspiro[4,5]des-7-en-8-yl)benzyloxy)phenyl)hex-4-inoic acid]?
A: expression of MyHC (C2C12 cells [1]): increases; expression of MyoG (C2C12 cells [1]): increases; myotube formation (C2C12 cells [2]): promoted; Bax/Bcl2 ratio (C2C12 cells [3]): reversed; cell viability (apoptosis caused by palmitate) (C2C12 cells [4]): reversed; expression of MyHC (C2C12 cells [5]): reversed; expression of MyoG (C2C12 cells [5]): reversed; MyHC positive area (C2C12 cells [6]): reversed; myotube thickness (C2C12 cells [6]): reversed
